{
  "source": "paper PMC10911062",
  "about": "“Identification and structural validation of purine nucleoside phosphorylase from Plasmodium falciparum as a target of MMV000848” (The Journal of Biological Chemistry, 2023)",
  "key": {"[1]": {"target": "T1, Purine nucleoside phosphorylase (PfPNP) (Plasmodium falciparum, UniProt Q8I3X4)", "T1 construct": "gene PNP", "T1 sequence (Q8I3X4 1-245)": "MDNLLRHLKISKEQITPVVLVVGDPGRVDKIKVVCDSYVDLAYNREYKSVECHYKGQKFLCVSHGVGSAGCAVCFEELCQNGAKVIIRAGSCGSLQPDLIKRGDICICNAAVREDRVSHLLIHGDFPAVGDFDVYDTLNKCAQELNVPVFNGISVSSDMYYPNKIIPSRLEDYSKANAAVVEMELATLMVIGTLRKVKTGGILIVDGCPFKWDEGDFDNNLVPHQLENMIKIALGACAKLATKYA", "test": "Michaelis-Menten kinetics of the purified enzyme", "format": "biochemical"}, "Falcilysin": {"target": "T2, Falcilysin (Plasmodium falciparum, UniProt Q76NL8)", "T2 construct": "gene FLN", "T2 sequence (Q76NL8 whole entry)": "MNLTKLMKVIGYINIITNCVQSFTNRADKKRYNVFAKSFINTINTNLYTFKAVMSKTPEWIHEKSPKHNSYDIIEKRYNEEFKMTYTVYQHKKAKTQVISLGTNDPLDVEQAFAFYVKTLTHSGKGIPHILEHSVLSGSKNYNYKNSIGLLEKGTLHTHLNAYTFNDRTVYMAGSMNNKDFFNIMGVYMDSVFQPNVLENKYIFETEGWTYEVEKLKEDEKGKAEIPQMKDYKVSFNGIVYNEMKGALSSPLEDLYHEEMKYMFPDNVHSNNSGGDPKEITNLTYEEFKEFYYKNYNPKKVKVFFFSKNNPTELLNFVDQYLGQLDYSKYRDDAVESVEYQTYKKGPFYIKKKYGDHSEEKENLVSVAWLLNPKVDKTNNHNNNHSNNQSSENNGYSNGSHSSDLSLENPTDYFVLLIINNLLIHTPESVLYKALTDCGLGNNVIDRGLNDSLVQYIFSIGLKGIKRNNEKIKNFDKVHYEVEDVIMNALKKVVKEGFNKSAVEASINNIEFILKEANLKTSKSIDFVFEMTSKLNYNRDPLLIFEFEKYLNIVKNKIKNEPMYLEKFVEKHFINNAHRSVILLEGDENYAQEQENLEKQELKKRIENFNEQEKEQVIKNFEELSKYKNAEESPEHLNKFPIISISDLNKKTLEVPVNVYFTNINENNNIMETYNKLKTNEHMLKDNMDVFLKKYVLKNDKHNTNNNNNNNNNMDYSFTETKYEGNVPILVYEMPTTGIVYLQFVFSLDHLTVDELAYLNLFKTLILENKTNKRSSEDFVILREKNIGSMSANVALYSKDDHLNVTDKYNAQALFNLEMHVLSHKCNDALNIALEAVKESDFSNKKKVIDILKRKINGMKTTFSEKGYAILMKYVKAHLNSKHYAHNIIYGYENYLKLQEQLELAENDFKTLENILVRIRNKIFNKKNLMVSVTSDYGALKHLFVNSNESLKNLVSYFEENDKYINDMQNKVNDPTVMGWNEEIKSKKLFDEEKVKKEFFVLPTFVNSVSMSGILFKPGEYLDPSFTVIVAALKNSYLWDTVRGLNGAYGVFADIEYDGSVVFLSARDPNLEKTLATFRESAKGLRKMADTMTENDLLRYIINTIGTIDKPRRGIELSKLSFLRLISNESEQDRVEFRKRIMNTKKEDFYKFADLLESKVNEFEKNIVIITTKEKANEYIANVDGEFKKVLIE", "test": "MS-CETSA (ITDR), intact infected erythrocytes and parasite lysate; minimal dose threshold", "format": "cell-based"}, "[2]": {"target": "T1, Purine nucleoside phosphorylase (PfPNP)", "test": "ITC; cocrystal structure at […] Å; also DSF, CETSA and enzyme inhibition (IC50 […], Ki […])", "format": "binding"}, "[3]": {"target": "T1, Purine nucleoside phosphorylase (PfPNP)", "test": "xanthine oxidase-coupled inosine phosphorolysis assay", "format": "biochemical"}, "[4]": {"target": "the molecule itself", "test": "crystal structure; co-crystal of PfPNP (37 mg/ml) with 3 mM MMV000848, sitting-drop vapor diffusion at 20 °C, 10% (w/v) PEG 1000; 1.85 Å, space group R32; hexamer formed through crystallographic symmetry"}},
  "note": "Read-outs that look alike come from different tables or passages of the source.",
  "data": [
    {"molecule": "O=c1[nH]cnc2c1ncn2[C@@H]1O[C@H](CO)[C@@H](O)[C@H]1O", "note": "[inosine]", "values": [
      {"measurement": "Michaelis-Menten kinetics of the purified enzyme", "setting": "[1]", "value": "Measurements of KM,app (apparent KM) of inosine was made in the presence of various concentrations of MMV000848"}
    ]},
    {"molecule": "OC(CNC1CCCC1)Cn1c2ccccc2c2ccccc21", "note": "(stereo not drawn) [MMV000848, 1-carbazol-9-yl-3-cyclopentylamino-propan-2-ol]", "values": [
      {"measurement": "MDT", "setting": "Falcilysin", "value": 749.91, "unit": "nM"},
      {"measurement": "Kd", "setting": "[2]", "value": 1.52, "unit": "µM"}
    ]},
    {"molecule": "C=C[C@H]1C[N@@]2CC[C@H]1C[C@H]2[C@H](O)c1ccnc2ccc(OC)cc12", "note": "[quinine]", "values": [
      {"measurement": "IC50", "setting": "[3]; read-out: IC50", "value": 11.3, "unit": "µM"}
    ]},
    {"molecule": "OC(c1cc(C(F)(F)F)nc2c(C(F)(F)F)cccc12)C1CCCCN1", "note": "(racemic) [mefloquine]", "values": [
      {"measurement": "IC50", "setting": "[3]", "value": 327, "unit": "µM"}
    ]},
    {"molecule": "Plasmodium falciparum purine nucleoside phosphorylase (enzyme, Purine nucleoside phosphorylase of Plasmodium falciparum, PlasmoDB PF3D7_0513300; gene subcloned into pNIC-CH; Homo-hexamer (three 2-fold symmetrical dimers around a crystallographic three-fold axis); one protein chain in the asymmetric unit; also called PfPNP; PNP; source: Rosetta BL21-DE3 Escherichia coli, purified (IMAC on HisTrapHP, SEC on Superdex 200)) MDNLLRHLKISKEQITPVVLVVGDPGRVDKIKVVCDSYVDLAYNREYKSVECHYKGQKFLCVSHGVGSAGCAVCFEELCQNGAKVIIRAGSCGSLQPDLIKRGDICICNAAVREDRVSHLLIHGDFPAVGDFDVYDTLNKCAQELNVPVFNGISVSSDMYYPNKIIPSRLEDYSKANAAVVEMELATLMVIGTLRKVKTGGILIVDGCPFKWDEGDFDNNLVPHQLENMIKIALGACAKLATKYA", "values": [
      {"measurement": "stoichiometry N", "setting": "[4]", "value": 6}
    ]}
  ]
}
